{
  "source": "patent US20090082438A1",
  "about": "“Coordination Compound Composed of Diaminocyclohexane Platinum (II) and Block Copolymer and Anti-Cancer Agent Comprising the Same” (priority 2005, published 2009)",
  "key": {"[1]": {"system": "mouse colon cancer Colon-26 cell line", "experiment": "Treating Test Example 2: anti-tumor and life-prolongation effect, i.v. administration to Colon-26-transplanted CDF1 mice", "format": "in vivo"}, "[2]": {"experiment": "Treating Test Example 2: toxicity (body weight change, deaths) in treated CDF1 mice", "details": "10 mg/kg", "from_the_text": "In this experiment, the treatment was started on the 9th day after the tumor transplantation."}},
  "note": "Counter-ions that a name gives are not always drawn.",
  "data": [
    {"compound": "O=C1[O][Pt-2]2([NH2+]C3CCCC[C@H]3[NH2+]2)[O]C1=O", "note": "(stereo partly shown) [oxaliplatin, oxalate (1,2-diaminocyclohexane)platinum (II)]", "values": [
      {"measurement": "life-prolonging effect (survival)", "setting": "[1]; doses 2, 4 or 6 mg/kg oxaliplatin", "value": "little life-prolonging effect"},
      {"measurement": "remarkable tumor growth-inhibiting effect", "setting": "[1]; oxaliplatin up to 10 mg/kg, every third day, three times", "value": "not observed"},
      {"measurement": "body weight reduction to", "setting": "[2]", "value": 80, "unit": "%"},
      {"measurement": "deaths compared with untreated group (survival number)", "setting": "[2]", "value": "earlier deaths than the untreated group"}
    ]}
  ]
}
